Legend:
Puccinia recondita = assay: In vivo preventive test on Puccinia recondita (brown rust on wheat); settings: wheat plants, preventive spray, 500 ppm, grading 12 days after contamination
Procedure: Example: In Vivo Preventive Test on Puccinia recondita (Brown Rust on Wheat) […] Wheat plants (“Scipion” variety), sown in starter cups on a 50/50 peat soil-pozzolana substrate and grown at 22° C., are treated at the 1-leaf stage (10 cm height) by spraying with the active ingredient prepared as described above. Plants, used as controls, are treated with the mixture of acetone/tween/DMSO/water not containing the active material. After 24 hours, the plants are contaminated by spraying the leaves with an aqueous suspension of Puccinia […] spores (100 000 spores per ml). […] Grading (% of efficacy) is carried out 12 days after the contamination, in comparison with the control plants. Under these conditions, good (at least 70%) or total protection is observed at a dose of 500 ppm with the following compounds: […]

Uromyces appendiculatus = assay: In vivo preventive test on Uromyces appendiculatus (bean rust); settings: bean plants, preventive spray, 500 ppm, grading 11 days after contamination
Procedure: Example: In Vivo Preventive Test on Uromyces appendiculatus (Bean Rust) […] Bean plants (“Saxa” variety), sown in starter cups on a 50/50 peat soil-pozzolana substrate and grown at 24° C., are treated at the 2-leaf stage (9 cm height) by spraying with the active ingredient prepared as described above. Plants, used as controls, are treated with the mixture of acetone/tween/DMSO/water not containing the active material. After 24 hours, the plants are contaminated by spraying the leaves with an aqueous suspension of Uromyces appendiculatus spores (150 000 spores per ml). […] Grading (% of efficacy) is carried out 11 days after the contamination, in comparison with the control plants. Under these conditions, good (at least 70%) or total protection is observed at a dose of 500 ppm with the following compounds: […]

[1] = logP by HPLC on reversed phase columns (EEC directive 79/831 Annex V.A8); settings: method [a]: LC-MS at pH 2.7, 0.1% formic acid in water / acetonitrile gradient 10% to 95%
Sphaerotheca fuliginea = assay: In vivo preventive test on Sphaerotheca fuliginea (powdery mildew on cucurbits); settings: gherkin plants, preventive spray, 500 ppm, grading 12 days after contamination
Procedure: Example: In Vivo Preventive Test on Sphaerotheca fuliginea (Powdery Mildew on Cucurbits) […] Gherkin plants (“Vert petit de Paris” variety), sown in starter cups on a 50/50 peat soil-pozzolana substrate and grown at 24° C., are treated at the Z11 cotyledon stage by spraying with the active ingredient prepared as described above. Plants, used as controls, are treated with the mixture of acetone/tween/DMSO/water not containing the active material. After 24 hours, the plants are contaminated by spraying the cotyledons with an aqueous suspension of Sphaerotheca fuliginea spores (100 000 spores per ml). The spores are collected from infected plants. […] Grading (% of efficacy) is carried out 12 days after the contamination, in comparison with the control plants. Under these conditions, good (at least 70%) or total protection is observed at a dose of 500 ppm with the following compounds: […]

Alternaria brassicae = assay: In vivo preventive test on Alternaria brassicae (leaf spot on radish); settings: radish plants, preventive spray, 500 ppm, grading 6 days after contamination
Procedure: Example: In Vivo Preventive Test on Alternaria brassicae (Leaf Spot on Radish) […] Radish plants (“Pernod Clair” variety), sown in starter cups on a 50/50 peat soil-pozzolana substrate and grown at 17° C., are treated at the cotyledon stage by spraying with the active ingredient prepared as described above. Plants, used as controls, are treated with the mixture of acetone/tween/DMSO/water not containing the active material. After 24 hours, the plants are contaminated by spraying the cotyledons with an aqueous suspension of Alternaria brassicae spores (50 000 spores per ml). The spores are collected from a 15-day-old culture. […] Grading (% of efficacy) is carried out 6 days after the contamination, in comparison with the control plants. Under these conditions, good (at least 70%) or total protection is observed at a dose of 500 ppm with the following compounds: […]

Septoria tritici = assay: In vivo preventive test on Septoria tritici (leaf spot on wheat); settings: wheat plants, preventive spray, 500 ppm, grading 24 days after contamination
Procedure: Example: In Vivo Preventive Test on Septoria tritici (Leaf Spot on Wheat) […] Wheat plants (“Scipion” variety), sown in starter cups on a 50/50 peat soil-pozzolana substrate and grown at 22° C., are treated at the 1-leaf stage (10 cm height) by spraying with the active ingredient prepared as described above. Plants, used as controls, are treated with the mixture of acetone/tween/DMSO/water not containing the active material. After 24 hours, the plants are contaminated by spraying the leaves with an aqueous suspension of cryopreserved Septoria tritici spores (500 000 spores per ml). […] Grading (% of efficacy) is carried out 24 days after the contamination, in comparison with the control plants. Under these conditions, good (at least 70%) or total protection is observed at a dose of 500 ppm with the following compounds: […]

Pyrenophora teres = assay: In vivo preventive test on Pyrenophora teres (net blotch on barley); settings: barley plants, preventive spray, 500 ppm, grading 14 days after contamination
Procedure: Example: In Vivo Preventive Test on Pyrenophora teres (Net Blotch on Barley) […] Barley plants (“Plaisant” variety), sown in starter cups on a 50/50 peat soil-pozzolana substrate and grown at 22° C., are treated at the 1-leaf stage (10 cm height) by spraying with the active ingredient prepared as described above. Plants, used as controls, are treated with the mixture of acetone/tween/DMSO/water not containing the active material. After 24 hours, the plants are contaminated by spraying the leaves with an aqueous suspension of Pyrenophora teres spores (12 000 spores per ml). The spores are collected from a 12-day-old culture. […] Grading (% of efficacy) is carried out 14 days after the contamination, in comparison with the control plants. Under these conditions, good (at least 70%) or total protection is observed at a dose of 500 ppm with the following compounds: […]

Botrytis cinerea = assay: In vivo preventive test on Botrytis cinerea (grey mould); settings: gherkin plants, preventive spray, 500 ppm, grading 4 to 5 days after contamination
Procedure: Example: In Vivo Preventive Test on Botrytis cinerea (Grey Mould) […] Gherkin plants (“Vert petit de Paris” variety), sown in starter cups on a 50/50 peat soil-pozzolana substrate and grown at 24° C., are treated at the Z11 cotyledon stage by spraying with the active ingredient prepared as described above. Plants, used as controls, are treated with the mixture of acetone/tween/DMSO/water not containing the active material. After 24 hours, the plants are contaminated by spraying the cotyledons with an aqueous suspension of cryopreserved Botrytis cinerea spores (50 000 spores per ml). The spores are suspended in a nutrient solution composed of 10 g/L of PDB, 50 g/L of D-Fructose, 2 g/L of NH4NO3 and 1 g/L of KH2PO4. […] Grading (% of efficacy) is carried out 4 to 5 days after the contamination, in comparison with the control plants. Under these conditions, good (at least 70%) or total protection is observed at a dose of 500 ppm with the following compounds: […]

Compound: CON=Cc1ccc(-c2ccccc2NC(=O)c2c(C(F)F)nn(C)c2Cl)c(Cl)c1 [Example 10]
- Eff. % (Puccinia recondita): 97%
- Eff. % (Uromyces appendiculatus): 100%
- logP [1]: 4.05[a]
- Eff. % (Sphaerotheca fuliginea): 100%

Compound: CON=Cc1ccc(-c2c(F)cccc2NC(=O)c2c(C(F)F)nn(C)c2Cl)cc1 [Example 28]
- Eff. % (Alternaria brassicae): 92%
- Eff. % (Puccinia recondita): 89%
- Eff. % (Septoria tritici): 92%
- Eff. % (Pyrenophora teres): 93%
- Eff. % (Uromyces appendiculatus): 100%
- logP [1]: 3.76[a]
- Eff. % (Sphaerotheca fuliginea): 100%

Compound: CCON=C(C)c1ccc(-c2ccccc2NC(=O)c2c(C(F)F)nn(C)c2Cl)cc1 [Example 34]
- Eff. % (Puccinia recondita): 89%
- Eff. % (Pyrenophora teres): 80%
- Eff. % (Uromyces appendiculatus): 100%
- logP [1]: 4.49[a]

Compound: CCON=C(C)c1cccc(-c2cccc(NC(=O)c3c(C(F)F)nn(C)c3Cl)c2)c1 [Example 43]
- Eff. % (Puccinia recondita): 89%
- Eff. % (Pyrenophora teres): 80%
- Eff. % (Uromyces appendiculatus): 100%
- logP [1]: 4.49[a]

Compound: CCON=C(C)c1cccc(-c2cccc(NC(=O)c3c(C(F)F)nn(C)c3F)c2)c1 [Example 44]
- Eff. % (Alternaria brassicae): 100%
- Eff. % (Puccinia recondita): 94%
- Eff. % (Pyrenophora teres): 79%
- Eff. % (Botrytis cinerea): 80%
- Eff. % (Uromyces appendiculatus): 100%
- logP [1]: 4.29[a]

Compound: CCON=Cc1ccc(-c2ccccc2NC(=O)c2c(C(F)F)nn(C)c2Cl)c(Cl)c1 [Example 36]
- Eff. % (Alternaria brassicae): 81%
- Eff. % (Puccinia recondita): 97%
- Eff. % (Pyrenophora teres): 90%
- Eff. % (Botrytis cinerea): 95%
- Eff. % (Uromyces appendiculatus): 94%
- logP [1]: 4.49[a]
- Eff. % (Sphaerotheca fuliginea): 100%

Compound: CCON=C(C)c1ccc(-c2ccccc2NC(=O)c2c(C(F)F)nn(C)c2Cl)cc1 [Example 2]
- Eff. % (Puccinia recondita): 98%
- Eff. % (Uromyces appendiculatus): 100%
- logP [1]: 4.58[a]
- Eff. % (Sphaerotheca fuliginea): 100%

Compound: CCON=Cc1ccc(-c2ccccc2NC(=O)c2c(C(F)F)nn(C)c2Cl)cc1Cl [Example 17]
- Eff. % (Alternaria brassicae): 98%
- Eff. % (Puccinia recondita): 97%
- Eff. % (Pyrenophora teres): 96%
- Eff. % (Uromyces appendiculatus): 100%
- logP [1]: 4.64[a]
- Eff. % (Sphaerotheca fuliginea): 100%

Compound: CON=Cc1ccc(-c2cc(F)ccc2NC(=O)c2c(C(F)F)nn(C)c2Cl)cc1 [Example 30]
- Eff. % (Alternaria brassicae): 97%
- Eff. % (Puccinia recondita): 100%
- Eff. % (Septoria tritici): 97%
- Eff. % (Pyrenophora teres): 93%
- Eff. % (Uromyces appendiculatus): 100%
- logP [1]: 3.66[a]
- Eff. % (Sphaerotheca fuliginea): 100%

Compound: CON=Cc1ccc(-c2ccccc2NC(=O)c2c(C(F)F)nn(C)c2Cl)cc1Cl [Example 38]
- Eff. % (Alternaria brassicae): 94%
- Eff. % (Puccinia recondita): 97%
- Eff. % (Pyrenophora teres): 96%
- Eff. % (Uromyces appendiculatus): 100%
- logP [1]: 4.19[a]
- Eff. % (Sphaerotheca fuliginea): 100%

Compound: CCON=Cc1c(F)cc(-c2ccccc2NC(=O)c2c(C(F)F)nn(C)c2Cl)cc1F [Example 14]
- Eff. % (Alternaria brassicae): 100%
- Eff. % (Puccinia recondita): 100%
- Eff. % (Pyrenophora teres): 100%
- Eff. % (Botrytis cinerea): 70%
- Eff. % (Uromyces appendiculatus): 100%
- logP [1]: 4.04[a]
- Eff. % (Sphaerotheca fuliginea): 100%

Compound: CC(=NOC(C)C)c1ccc(-c2ccccc2NC(=O)c2c(C(F)F)nn(C)c2Cl)cc1 [Example 1]
- Eff. % (Puccinia recondita): 98%
- Eff. % (Septoria tritici): 75%
- Eff. % (Uromyces appendiculatus): 100%
- logP [1]: 5.03[a]
- Eff. % (Sphaerotheca fuliginea): 100%

Compound: CCON=Cc1ccc(-c2cc(F)ccc2NC(=O)c2c(C(F)F)nn(C)c2Cl)cc1 [Example 19]
- Eff. % (Alternaria brassicae): 88%
- Eff. % (Puccinia recondita): 97%
- Eff. % (Pyrenophora teres): 80%
- Eff. % (Botrytis cinerea): 70%
- Eff. % (Uromyces appendiculatus): 100%
- logP [1]: 4.11[a]
- Eff. % (Sphaerotheca fuliginea): 100%

Compound: CCON=Cc1ccc(-c2ccccc2NC(=O)c2c(C(F)F)nn(C)c2Cl)cc1C(F)(F)F [Example 26]
- Eff. % (Puccinia recondita): 97%
- Eff. % (Pyrenophora teres): 90%
- Eff. % (Uromyces appendiculatus): 100%
- logP [1]: 4.65[a]
- Eff. % (Sphaerotheca fuliginea): 100%

Compound: CON=Cc1ccc(-c2ccccc2NC(=O)c2c(C(F)F)nn(C)c2Cl)cc1F [Example 33]
- Eff. % (Alternaria brassicae): 88%
- Eff. % (Puccinia recondita): 100%
- Eff. % (Pyrenophora teres): 96%
- Eff. % (Botrytis cinerea): 95%
- Eff. % (Uromyces appendiculatus): 99%
- logP [1]: 3.75[a]
- Eff. % (Sphaerotheca fuliginea): 100%

Compound: CON=C(C)c1cccc(-c2cccc(NC(=O)c3c(C(F)F)nn(C)c3F)c2)c1 [Example 42]
- Eff. % (Puccinia recondita): 89%
- Eff. % (Pyrenophora teres): 70%
- Eff. % (Uromyces appendiculatus): 97%
- logP [1]: 3.85[a]

Compound: CCON=C(C)c1ccc(-c2ccccc2NC(=O)c2c(C(F)F)nn(C)c2F)cc1 [Example 16]
- Eff. % (Alternaria brassicae): 100%
- Eff. % (Puccinia recondita): 94%
- Eff. % (Pyrenophora teres): 79%
- Eff. % (Botrytis cinerea): 80%
- Eff. % (Uromyces appendiculatus): 100%
- logP [1]: 4.29[a]

Compound: C#CCON=C(C)c1ccc(-c2cccc(NC(=O)c3c(C(F)F)nn(C)c3Cl)c2)cc1 [Example 35]
- Eff. % (Septoria tritici): 75%
- Eff. % (Uromyces appendiculatus): 98%
- logP [1]: 4.01[a]

Compound: CCON=C(C)c1ccc(-c2ccccc2NC(=O)c2c(C(F)F)nn(C)c2F)cc1 [Example 11]
- Eff. % (Alternaria brassicae): 97%
- Eff. % (Puccinia recondita): 94%
- Eff. % (Pyrenophora teres): 96%
- Eff. % (Uromyces appendiculatus): 100%
- logP [1]: 4.24[a]
- Eff. % (Sphaerotheca fuliginea): 100%

Compound: CON=C(C)c1cccc(-c2cccc(NC(=O)c3c(C(F)F)nn(C)c3Cl)c2)c1 [Example 45]
- Eff. % (Puccinia recondita): 94%
- Eff. % (Pyrenophora teres): 80%
- Eff. % (Uromyces appendiculatus): 100%
- logP [1]: 4.04[a]

Compound: CCON=Cc1ccc(-c2ccccc2NC(=O)c2c(C(F)F)nn(C)c2Cl)c(F)c1 [Example 37]
- Eff. % (Alternaria brassicae): 88%
- Eff. % (Puccinia recondita): 97%
- Eff. % (Pyrenophora teres): 100%
- Eff. % (Botrytis cinerea): 100%
- Eff. % (Uromyces appendiculatus): 97%
- logP [1]: 3.65[a]
- Eff. % (Sphaerotheca fuliginea): 100%
